US11964938B2, “3-phenyl-4-hexynoic acid derivatives as GPR40 agonists” (CELON PHARMA S.A., priority 2018, dated 2024)

Tests used:
[1] = tested on: MIN6 (mouse insulinoma) cells; experiment: Glucose-dependent insulin release in mouse insulinoma cells (MIN6); format: cell-based; conditions: multiplicity of insulin efflux increase in relation to control; 10 uM compound, 20 mM glucose, 1 hour
Method: Experiment B2: Glucose-Dependent Insulin Release in Mouse Insulinoma Cells (MIN6).
MIN6 (mouse insulinoma) cells were seeded on a plate covered with PDL (poly-D-lysine) at 5×10^5/well and cultured for 48 hours. […] Tested compounds, after dilution to the concentration of 10-40 uM in KRBH buffer with the addition of 20 mM glucose, were added to the cells and incubated for 1 hour to induce insulin release. Negative control was KRBH buffer with the addition of 2 mM glucose. Concentration of released insulin was determined using ELISA test (Mercodia).
Table 4 present MIN6Insulin @10 uM values for representative compounds of the invention. MIN6Insulin @10 uM value is a multiplicity of insulin efflux increase in relation to control experiment, following addition of 10 uM of tested compound.

[2] = I phase of clinical trials; cited from earlier work
[3] = biological target: T1, human GPR40 receptor (Homo sapiens, UniProt O14842); experiment: Analysis of receptor activation - calcium ions concentration measurement (aequorin luminescence); format: cell-based; conditions: enhancement or decrease of activity in relation to reference TAK-875, from EC50 values
T1 construct: host or cells: CHO-K1 (co-expressing aequorin)
Excerpt: Experiment B1: Analysis of Receptor Activation—Calcium Ions Concentration Measurement.
As a result of the measurement, luminescence change in the time curve were obtained, the integration of which allowed to calculate the relative amount of calcium ions released to cytosol. […] Curves plotted from obtained results allowed to determine EC50 values.

[4] = tested on: diabetes STZ-treated mice; experiment: Von Frey test on diabetes STZ-treated mice (tactile allodynia); format: in vivo, mouse; conditions: 60 minutes after administration, mean of group
Method: Experiment B5: Von Frey Test on Diabetes STZ-Treated Mice.
Tactile allodynia was assessed by electronic von Frey apparatus (Bioseb) equipped with a flexible filament. Reaction to stimuli was assessed using growing applied pressure (from 0 to 10 g) on a plantar side of the hind foot of mice. Pregabalin was a control, as reference healthy mice with preserved normal response to the stimuli were used. In the day of the experiment, mice were placed separately in cages with a wire mesh bottom for 1 h for habituation to experimental conditions. After habituation period, each mouse was treated 3 times alternately, with 30 s intervals between each measurement, to obtain starting values (before administration of the compound) of pain sensitivity. […] The results are presented in Table 7 as mean value for all mice in a given group (n=7-10).

[5] = tested on: Wistar HAN Crl:WI (HAN) rats; experiment: Glucose tolerance test in vivo on rats; parameters: species or system rat; conditions: 10 mg/kg oral single dose, blood; for AUC for glucose (0-540 min.): i.p. glucose bolus at t=0 and 6 h; for AUC for insulin (0-180 min.): i.p. glucose bolus
Method: Experiment B3: Glucose Tolerance Test In Vivo on Rats.
To evaluate glucose lowering effect of the compounds in in vivo study, glucose tolerance test (GTT) was performed. The study was performed on male outbred Wistar HAN Crl:WI (HAN) rats from Charles River, weight about 250-300 g, 8-10 weeks old. Rats were starved for 12 hours (with free access to water).
At time point t=0 animals were given orally a single dose of a compound (by a gastric tube) and immediately (t=0) and after 6 hour (t=6 h) intraperitoneal (i.p.) glucose bolus ([…]). At time points t=0 (just before oral administration of the compounds and intraperitoneal glucose administration), 0.25, 0.5, 1, 2, 2.5, 3, 6, 6.25, 7, 8, and 9 h blood samples from tail vein were collected from each animal for glucose level determination using Accu-chek glucometer (Roche Diagnostics) and additionally at t=0.25, 0.5, 1, 2, 2.5, and 3 h blood samples from tail vein were collected for insulin level measurement using ELISA test (Mercodia).
Tested compound were prepared in 5% DMSO/40% PEG300/55% PBS vehicle and administered at the dose of 10 mg/kg body weight in a volume of 0.5 ml/100 g body weight. After 4 hours after tested compound administration animals were given standard diet to the cages. Decrease of AUC value for glucose level in blood was calculated and the results for selected compounds of the invention are presented in Table 5. Analysis was performed using GraphPad prism software.

T1 sequence (O14842 whole entry): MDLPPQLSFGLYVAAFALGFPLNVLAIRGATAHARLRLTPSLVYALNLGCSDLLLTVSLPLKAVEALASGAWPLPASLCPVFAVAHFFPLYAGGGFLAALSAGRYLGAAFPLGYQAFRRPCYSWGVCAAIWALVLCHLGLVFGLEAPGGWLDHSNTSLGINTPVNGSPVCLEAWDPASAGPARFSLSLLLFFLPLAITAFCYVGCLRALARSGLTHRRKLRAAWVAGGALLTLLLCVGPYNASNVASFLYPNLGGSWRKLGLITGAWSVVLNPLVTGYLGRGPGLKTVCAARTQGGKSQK

SMILES	% PTAK-875 [3]	other results
CC#C[C@@H](CC(=O)O)c1ccc(OCc2cccc(-c3ccc(C(F)(F)F)cc3)c2)cc1 [Example R2, (3S)-3-[4-({3-[4-(trifluoromethyl)phenyl]phenyl}methoxy)phenyl]-hex-4-ynoic acid, reference compound]	–	MIN6Insulin @10 uM [1]: 1.567; insulin plasma level [2]: enhanced insulin plasma level
CC#C[C@@H](CC(=O)O)c1ccc(OCCCC(F)(F)F)cc1 [Example F39, (3S)-3-[4-(4,4,4-trifluorobutoxy)phenyl]hex-4-ynoic acid]	B (81-120% PTAK-875)	–
C=C(C)CCOc1ccc([C@@H](C#CC)CC(=O)O)cc1 [Example F30, (3S)-3-{4[(3-methylbut-3-en-1-yl)oxy]phenyl}hex-4-ynoic acid]	A (>120% PTAK-875)	–
CC#C[C@@H](CC(=O)O)c1ccc(OCCC(C)(C)C)cc1 [Example F27, (3S)-3-[4-(3,3-dimethylbutoxy)phenyl]hex-4-ynoic acid]	D (21-50% PTAK-875)	–
CC#C[C@@H](CC(=O)O)c1ccc(OCCCCCCC)cc1 [Example F5, (3S)-3-[4-(heptyloxy)phenyl]hex-4-ynoic acid]	A (>120% PTAK-875)	–
CC#CC(CC(=O)O)c1ccc(OC/C=C(\C)CC/C=C(\C)CCC=C(C)C)cc1 (racemic) [Example F11, (3R/S)-3-(4-{[(2E,6E)-3,7,11-trimethyldodeca-2,6,10-trien-1-yl]oxy}-phenyl)hex-4-ynoic acid]	D (21-50% PTAK-875)	–
C=CCCCOc1ccc([C@@H](C#CC)CC(=O)O)cc1 [Example F20, (3S)-3-[4-(pent-4-en-1-yloxy)phenyl]hex-4-ynoic acid]	B (81-120% PTAK-875)	–
CC(C)C[C@H](CN)CC(=O)O [Pregabalin, reference compound]	–	Applied pressure causing the response, sick animal (neuropathic) after compound administration ([4]; 3 mg/kg p.o.): 2.04 g; Applied pressure causing the response, sick animal (neuropathic) after compound administration ([4]; 10 mg/kg p.o.): 2.65 g; Applied pressure causing the response, sick animal (neuropathic) after compound administration ([4]; 30 mg/kg p.o.): 4.11 g
CC#C[C@@H](CC(=O)O)c1ccc(OCCC)cc1 [Example F1, (3S)-3-(4-propoxyphenyl)hex-4-ynoic acid]	D (21-50% PTAK-875)	–
CC#CCCOc1ccc([C@@H](C#CC)CC(=O)O)cc1 [Example F21, (3S)-3-[4-(pent-3-yn-1-yloxy)phenyl]hex-4-ynoic acid]	C (51-80% PTAK-875)	–
CC#C[C@@H](CC(=O)O)c1ccc(OC/C=C/CCC)cc1 [Example F18, (3S)-3-{4-[(2E)-hex-2-en-1-yloxy]phenyl}hex-4-ynoic acid]	A (>120% PTAK-875)	–
CC#CC(CC(=O)O)c1ccc(OCC(C)(C)C)cc1 (racemic) [Example F26, (3R/S)-3-[4-(2,2-dimethylpropoxy)phenyl]hex-4-ynoic acid]	E (<20% PTAK-875)	–
CC#C[C@@H](CC(=O)O)c1ccc(OCCCCC(F)(F)F)cc1 [Example F40, (3S)-3-{4[(5,5,5-trifluoropentyl)oxy]phenyl}hex-4-ynoic acid]	B (81-120% PTAK-875)	–
CC#C[C@@H](CC(=O)O)c1ccc(OC(C)C(C)C)cc1 (mixture of isomers) [Example F13, (3S)-3-(4-{[(2R/S)-3-methylbutan-2-yl]oxy}phenyl)hex-4-ynoic acid]	A (>120% PTAK-875)	–
C=C(C)/C=C/COc1ccc([C@@H](C#CC)CC(=O)O)cc1 [Example F34, (3S)-3-(4-{[(2E)-4-methylpenta-2,4-dien-1-yl]oxy}phenyl)hex-4-ynoic acid]	A (>120% PTAK-875)	melting point: 94.7 to 95.7 °C
CC#C[C@@H](CC(=O)O)c1ccc(OCC(C)C(C)C)cc1 (mixture of isomers) [Example F37, (3S)-3-{4-[(2R/S)-2,3-dimethylbutoxy]phenyl}hex-4-ynoic acid]	A (>120% PTAK-875)	–
CC#C[C@@H](CC(=O)O)c1ccc(OC(CC)CC)cc1 [Example F17, (3S)-3-[4-(pentan-3-yloxy)phenyl]hex-4-ynoic acid]	E (<20% PTAK-875)	–
CC#C[C@@H](CC(=O)O)c1ccc(OCC(C)=C(C)C)cc1 [Example F33, (3S)-3-{4-[(2,3-dimethylbut-2-en-1-yl)oxy]phenyl}hex-4-ynoic acid]	–	MIN6Insulin @10 uM [1]: 3.895; AUC for glucose (0-540 min.) [5]: 19393.1; AUC for insulin (0-180 min.) [5]: 519.1
CC#C[C@@H](CC(=O)O)c1ccc(OC/C=C/C=C/C)cc1 [Example F19, (3S)-3-{4-[(2E,4E)-hexa-2,4-dien-1-yloxy]phenyl}hex-4-ynoic acid]	A (>120% PTAK-875)	–
CC#C[C@@H](CC(=O)O)c1ccc(OCC#CCC)cc1 [Example F22, (3S)-3-[4-(pent-2-yn-1-yloxy)phenyl]hex-4-ynoic acid]	C (51-80% PTAK-875)	–
CC#C[C@@H](CC(=O)O)c1ccc(OC/C=C(\C)CCC=C(C)C)cc1 [Example F6, (3S)-3-(4-{[(2E)-3,7-dimethylocta-2,6-dien-1-yl]oxy}phenyl)hex-4-ynoic acid]	–	AUC for glucose (0-540 min.) [5]: 25184.1; AUC for insulin (0-180 min.) [5]: 492.5
CC#C[C@@H](CC(=O)O)c1ccc(OCCCC)cc1 [Example F2, (3S)-3-(4-butoxyphenyl)hex-4-ynoic acid]	A (>120% PTAK-875)	–
CC#C[C@@H](CC(=O)O)c1ccc(OCCCCCC)cc1 [Example F4, (3S)-3-[4-(hexyloxy)phenyl]hex-4-ynoic acid]	A (>120% PTAK-875)	–
CC#C[C@@H](CC(=O)O)c1ccc(OCCC(C)CC)cc1 (mixture of isomers) [Example F38, (3S)-3-(4-{[(3R/S)-3-methylpentyl]oxy}phenyl)hex-4-ynoic acid]	B (81-120% PTAK-875)	–
CC#C[C@@H](CC(=O)O)c1ccc(OCCC(C)C)cc1 [Example F24, (3S)-3-[4-(3-methylbutoxy)phenyl]hex-4-ynoic acid]	–	MIN6Insulin @10 uM [1]: 2.627; AUC for glucose (0-540 min.) [5]: 24289.7; AUC for insulin (0-180 min.) [5]: 329.0; melting point: 26.4 to 27.1 °C
CC#C[C@@H](CC(=O)O)c1ccc(OCC=C(C)C)cc1 [Example F28, (3S)-3-{4[(3-methylbut-2-en-1-yl)oxy]phenyl}hex-4-ynoic acid]	–	MIN6Insulin @10 uM [1]: 2.782; AUC for glucose (0-540 min.) [5]: 28377.4; AUC for insulin (0-180 min.) [5]: 499.2; melting point: 52.1 to 53.1 °C
